From patent publication US20250129430A1, “HIGH ATP-AFFINITY PROTEIN AS THERAPEUTIC TARGET FOR INTRACTABLE CANCER MOLECULAR SUBTYPES AND INHIBITOR THEREOF” (VeraVerse Co., Ltd., priority 2021, published 2025)
Counter-ions that a name gives are not always drawn.

Columns and labels:
Format in all cases: cell-based, human
[1] = tested on: SNU484; assay: Cell viability drug screen, 12-point dose-response AUC
Method in brief: (§1)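 Luminescent viability readings, taken 15 min after reagent addition at room temperature, were normalized to the 0.5% DMSO control to build 12-point dose-response curves. Trapezoidal integration gave the AUC. Cells had been plated at 5×10^3 per well and then exposed to half-log dilutions for 72 h.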

[2] = tested on: SNU638; assay: as above
Method in brief: as §1

[3] = tested on: SNU620; assay: as above
Method in brief: as §1

[4] = tested on: AGS; assay: as above
Method in brief: (§2)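 Each cell line receives a twelve-point half-log titration of drug beginning 24 h after plating 5×10^3 cells per well. Following 72 h culture at 37 °C, luminescent signal is recorded and expressed versus vehicle. AUC is derived by the trapezoidal method.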

[5] = tested on: Hs746T; assay: as above
Method in brief: as §1

[6] = tested on: KATO3; assay: as above
Method in brief: as §1

[7] = tested on: SNU1967; assay: as above
Method in brief: as §1

[8] = tested on: MKN74; assay: as above
Method in brief: as §2

[9] = tested on: YCC11; assay: as above
Method in brief: as §1

[10] = tested on: NCC24; assay: as above
Method in brief: as §1

[11] = tested on: MKN1; assay: as above
Method in brief: as §1

[12] = tested on: NCC59; assay: as above
Method in brief: as §1

[13] = tested on: NCI_N87; assay: as above
Method in brief: as §1

[14] = tested on: OCUM1; assay: as above
Method in brief: as §1

[15] = tested on: NCC20; assay: as above
Method in brief: as §1

[16] = tested on: NCC19; assay: as above
Method in brief: as §1

[17] = tested on: YCC2; assay: as above
Method in brief: as §1

[18] = tested on: MKN45; assay: as above
Method in brief: as §2

[19] = tested on: SNU1750; assay: as above
Method in brief: as §1

[20] = tested on: SNU719; assay: as above
Method in brief: as §2

[21] = tested on: SNU216; assay: as above
Method in brief: as §2

[22] = tested on: SNU16; assay: as above
Method in brief: as §1

[23] = tested on: SK4; assay: as above
Method in brief: as §1

[24] = tested on: YCC3; assay: as above
Method in brief: as §1

[25] = tested on: SNU1; assay: as above
Method in brief: as §1

[26] = tested on: SNU668; assay: as above
Method in brief: as §1

[27] = tested on: SNU601; assay: as above
Method in brief: as §1

[28] = tested on: MKN28; assay: as above
Method in brief: as §1

[29] = tested on: FU97; assay: as above; design: Average Area Under the Viability Curve (AUC), AUC norm value: scale not given here
Method in brief: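 Trapezoidal AUC of a 12-point, DMSO-normalized dose-response curve. Luminescent viability was measured after 72 h of exposure at 37° C to half-log serial dilutions (0.5% DMSO control), dosed 24 h after plating FU97 cells at 5×10^3 per well.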

[30] = tested on: non-SEM-type gastric cancer cell line; assay: Cell viability drug screen, AUC summary over non-SEM-type lines; settings: in the non-SEM-type gastric cancer cell line

In the case of `COC1=CC(c2cc3ccccc3[nH]2)=N/C1=C\c1[nH]c(C)cc1C` [Obatoclax mesylate (GX15-070), Obatoclax mesylate], the “Average Area Under the Viability Curve (AUC), AUC norm value” (from here on “Average Area Under the Viability Curve”) ([1]; SNU484 cells (SEM subtype), 72 hours) is reported as −1.4, the “Average Area Under the Viability Curve” value ([2]; SNU638 cells, 72 hours) is reported as −0.5094 and the “Average Area Under the Viability Curve” value ([3]; SNU620 cells, 72 hours) is reported as 0.8129. For the same compound, the “Average Area Under the Viability Curve” value ([4]; AGS cells (non-SEM subtype), 72 hours) was −0.9005, the “Average Area Under the Viability Curve” value ([5]; Hs746T cells (SEM subtype), 72 hours) was 0 and the “Average Area Under the Viability Curve” value ([6]; KATO3 cells, 72 hours) was 1.383. The “Average Area Under the Viability Curve” value ([7]; SNU1967 cells, 72 hours) was −0.4093, the “Average Area Under the Viability Curve” value ([8]; MKN74 cells, 72 hours) was −1.051 and the “Average Area Under the Viability Curve” value ([9]; YCC11 cells (SEM subtype), 72 hours) was −0.8407. The “Average Area Under the Viability Curve” value ([10]; NCC24 cells, 72 hours) was 0.2511, the “Average Area Under the Viability Curve” value ([11]; MKN1 cells, 72 hours) was 0.7857 and the “Average Area Under the Viability Curve” value ([12]; NCC59 cells, 72 hours) was 2.5912. The “Average Area Under the Viability Curve” value ([13]; NCI_N87 cells, 72 hours) was 0.636, the “Average Area Under the Viability Curve” value ([14]; OCUM1 cells, 72 hours) was 0.1302 and the “Average Area Under the Viability Curve” value ([15]; NCC20 cells, 72 hours) was −0.9868. For the same compound, the “Average Area Under the Viability Curve” value ([16]; NCC19 cells, 72 hours) was 1.604, the “Average Area Under the Viability Curve” value ([17]; YCC2 cells, 72 hours) was −0.5916 and the “Average Area Under the Viability Curve” value ([18]; MKN45 cells (non-SEM subtype), 72 hours) was 0.9313. For the same compound, the “Average Area Under the Viability Curve” value ([19]; SNU1750 cells (SEM subtype), 72 hours) was −0.872, the “Average Area Under the Viability Curve” value ([20]; SNU719 cells, 72 hours) was 2.585 and the “Average Area Under the Viability Curve” value ([21]; SNU216 cells (non-SEM subtype), 72 hours) was −0.1398. The “Average Area Under the Viability Curve” value ([22]; SNU16 cells, 72 hours) was 1.841, the “Average Area Under the Viability Curve” value ([23]; SK4 cells (SEM subtype), 72 hours) was −1.531 and the “Average Area Under the Viability Curve” value ([24]; YCC3 cells, 72 hours) was 2.281. The “Average Area Under the Viability Curve” value ([25]; SNU1 cells, 72 hours) was 0.5238, the “Average Area Under the Viability Curve” value ([26]; SNU668 cells (SEM subtype), 72 hours) was −0.2715 and the “Average Area Under the Viability Curve” value ([27]; SNU601 cells, 72 hours) was 2.791. The “Average Area Under the Viability Curve” value ([28]; MKN28 cells, 72 hours) was −0.3769, the “Average Area Under the Viability Curve” value ([29]; FU97 cells, 72 hours) was −1.5029 and the AUC value [30] was “high”.

`[O-][n+]1ccccc1[S-].[O-][n+]1ccccc1[S-].[Zn+2]` [PYRITHIONE ZINC, Pyrithione zinc] was tested, and the “area under the viability curve (AUC), normalized” value (“area … normalized” for short) [1] was −0.9287, the “area … normalized” value [2] was −0.08685 and the “area … normalized” value [3] was −0.7817. For the same compound, the “area … normalized” value [4] was −0.9355, the “area … normalized” value [5] was −0.541 and the “area … normalized” value [6] was 0.8219. For the same compound, the “area … normalized” value [7] was −0.5027, the “area … normalized” value [8] was −1.149 and the “area … normalized” value [9] was −1.337. For the same compound, the “area … normalized” value [10] was −0.309, the “area … normalized” value [11] was −0.4913 and the “area … normalized” value [12] was 0.7288. For the same compound, the “area … normalized” value [13] was 1.161, the “area … normalized” value [14] was 0.5355 and the “area … normalized” value [15] was −0.7838. For the same compound, the “area … normalized” value [16] was 0.7336, the “area … normalized” value [17] was −0.08387 and the “area … normalized” value [18] was −1.0871. The “area … normalized” value [19] was 0.1011, the “area … normalized” value [20] was 1.547 and the “area … normalized” value [21] was −0.2272. The “area … normalized” value [22] was 1.28, the “area … normalized” value [23] was 0 and the “area … normalized” value [24] was 0.6512. For the same compound, the “area … normalized” value [25] was 1.431, the “area … normalized” value [26] was 0.7681 and the “area … normalized” value [27] was 2.666. For the same compound, the “area … normalized” value [28] was 0.1421, the “area … normalized” value [29] was 0.3344 and the AUC value [30] was “high”.
